Data reported in patent US8629157B2, “Pyrrolidine compounds which modulate the CB2 receptor” (Boehringer Ingelheim International GmbH, priority 2009, dated 2014).
Like-named read-outs stand apart in the source and are kept apart here.

Target: human CB2R (Homo sapiens, UniProt P34972)
Experiment: CB2R mediated modulation of cAMP synthesis
Type: cell-based
Protocol: B. CB2R Mediated Modulation of cAMP Synthesis:
Compounds of the invention were evaluated for their CB2 agonist or inverse agonistic activity in accordance with the following experimental method.
CHO cells expressing human CB2R (Euroscreen) were plated at a density of 5000 cells per well in 384 well plates and incubated overnight at 37° C. After removing the media, the cells were treated with test compounds diluted in stimulation buffer containing 1 mM IBMX, 0.25% BSA and 10 uM Forskolin. The assay was incubated for 30 minutes at 37° C. Cells were lysed and the cAMP concentration was measured using DiscoverX-XS cAMP kit, following the manufacturer's protocol. In this setting, agonists will decrease forskolin induced production of cAMP while inverse agonists will further increase forskolin induced production of cAMP. EC50 of agonists were calculated as follows. The maximal amount of cAMP produced by forskolin compared to the level of cAMP inhibited by 1 uM CP55940 is defined as 100%. […] Data was analyzed using a four-parameter logistic model. (Model 205 of XLfit 4.0).

[1] = CHO cells expressing human CB2R, inhibition of forskolin-stimulated cAMP synthesis, mean, read-out: CB2 CAMP @ EC50 nM (mean)

Chain of human CB2R (P34972 whole entry): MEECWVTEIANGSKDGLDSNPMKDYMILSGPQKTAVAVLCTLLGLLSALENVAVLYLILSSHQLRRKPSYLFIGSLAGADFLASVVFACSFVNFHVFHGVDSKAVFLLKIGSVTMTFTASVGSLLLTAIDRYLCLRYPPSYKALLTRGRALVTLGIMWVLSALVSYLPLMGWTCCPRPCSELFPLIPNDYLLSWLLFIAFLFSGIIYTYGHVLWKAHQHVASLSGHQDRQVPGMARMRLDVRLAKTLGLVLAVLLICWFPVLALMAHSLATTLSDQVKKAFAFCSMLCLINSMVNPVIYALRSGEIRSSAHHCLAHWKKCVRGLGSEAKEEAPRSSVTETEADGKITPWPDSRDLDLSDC

Row | SMILES | EC50 [nM] | EC50 [1] [nM]
1 | CC(C)(C)c1cc(NC(=O)[C@@H]2CC(F)(F)CN2C(=O)C2CCC(F)(F)CC2)no1 [(S)-1-(4,4-Difluoro-cyclohexanecarbonyl)-4,4-difluoro-pyrrolidine-2-carboxylic acid (5-tert-butyl-isoxazol-3-yl)-amide] | 226 | 
2 | CC(C)(C)c1cc(NC(=O)[C@@H]2CCC(=O)N2c2ccc(Cl)cc2F)on1 [(S)-1-(4-Chloro-2-fluoro-phenyl)-5-oxo-pyrrolidine-2-carboxylic acid (3-tert-butyl-isoxazol-5-yl)-amide] | 82 | 
3 | CC(C)(C)c1cc(NC(=O)[C@@H]2CCC(=O)N2c2ccc(Cl)c(F)c2)on1 [(S)-1-(4-Chloro-3-fluoro-phenyl)-5-oxo-pyrrolidine-2-carboxylic acid (3-tert-butyl-isoxazol-5-yl)-amide] | 14.2 | 
4 | CC(C)(C)c1cc(NC(=O)[C@@H]2CCC(=O)N2c2ccc(Cl)c(F)c2)no1 [(S)-1-(4-Chloro-3-fluoro-phenyl)-5-oxo-pyrrolidine-2-carboxylic acid (5-tert-butyl-isoxazol-3-yl)-amide] | 12.7 | 
5 | Cc1cc(N2C(=O)CC[C@H]2C(=O)Nc2cc(C(C)(C)C)no2)ccc1Cl [(S)-1-(4-Chloro-3-methyl-phenyl)-5-oxo-pyrrolidine-2-carboxylic acid (3-tert-butyl-isoxazol-5-yl)-amide] | 23.7 | 
6 | Cc1cc(N2C(=O)CC[C@H]2C(=O)Nc2cc(C(C)(C)C)on2)ccc1Cl [(S)-1-(4-Chloro-3-methyl-phenyl)-5-oxo-pyrrolidine-2-carboxylic acid (5-tert-butyl-isoxazol-3-yl)-amide] | 59.4 | 
7 | CC(C)(C)c1cc(NC(=O)[C@@H]2CCCN2S(=O)(=O)c2ccc(Cl)cc2)no1 [(S)-1-(4-Chloro-benzenesulfonyl)-pyrrolidine-2-carboxylic acid (5-tert-butyl-isoxazol-3-yl)-amide] | 284 | 
8 | CC(C)(C)c1cc(NC(=O)[C@@H]2CCCN2Cc2ccc(Cl)cc2)on1 [(S)-1-(4-Chloro-benzyl)-pyrrolidine-2-carboxylic acid (3-tert-butyl-isoxazol-5-yl)-amide] | 2.28 | 
9 | CC(C)(C)c1cc(NC(=O)[C@]2(C)CCCN2c2ccc(Cl)cc2)no1 [(S)-1-(4-Chloro-phenyl)-2-methyl-pyrrolidine-2-carboxylic acid (5-tert-butyl-isoxazol-3-yl)-amide] | 0.21 | 
10 | C[C@@]1(C(=O)Nc2ccc(C(F)(F)F)cn2)CCCN1c1ccc(Cl)cc1 [(S)-1-(4-Chloro-phenyl)-2-methyl-pyrrolidine-2-carboxylic acid (5-trifluoromethyl-pyridin-2-yl)-amide] | 27.2 | 
11 | O=C(NCCC1CCCCC1)[C@@H]1CCC(=O)N1c1ccc(Cl)cc1 [(S)-1-(4-Chloro-phenyl)-5-oxo-pyrrolidine-2-carboxylic acid (2-cyclohexyl-ethyl)-amide] | 334 | 
12 | CC1CC(NC(=O)[C@@H]2CCC(=O)N2c2ccc(Cl)cc2)CC(C)(C)C1 (stereo partly drawn) [(S)-1-(4-Chloro-phenyl)-5-oxo-pyrrolidine-2-carboxylic acid (3,3,5-trimethyl-cyclohexyl)-amide] | 212 | 
13 | CC(C)c1cc(NC(=O)[C@@H]2CCC(=O)N2c2ccc(Cl)cc2)on1 [(S)-1-(4-Chloro-phenyl)-5-oxo-pyrrolidine-2-carboxylic acid (3-isopropyl-isoxazol-5-yl)-amide] | 290 | 
14 | CCCc1cc(NC(=O)[C@@H]2CCC(=O)N2c2ccc(Cl)cc2)on1 [(S)-1-(4-Chloro-phenyl)-5-oxo-pyrrolidine-2-carboxylic acid (3-propyl-isoxazol-5-yl)-amide] | 263 | 
15 | CCC(C)c1cc(NC(=O)[C@@H]2CCC(=O)N2c2ccc(Cl)cc2)on1 (stereo partly drawn) [(S)-1-(4-Chloro-phenyl)-5-oxo-pyrrolidine-2-carboxylic acid (3-sec-butyl-isoxazol-5-yl)-amide] |  | 104
16 | CC(C)(C)c1cc(NC(=O)[C@@H]2CCC(=O)N2c2ccc(Cl)cc2)sn1 [(S)-1-(4-Chloro-phenyl)-5-oxo-pyrrolidine-2-carboxylic acid (3-tert-butyl-isothiazol-5-yl)-amide] | 135 | 
17 | CC(C)(C)c1cccc(NC(=O)[C@@H]2CCC(=O)N2c2ccc(Cl)cc2)c1 [(S)-1-(4-Chloro-phenyl)-5-oxo-pyrrolidine-2-carboxylic acid (3-tert-butyl-phenyl)-amide] | 58.7 | 
18 | CC(C)(C)C1CCC(NC(=O)[C@@H]2CCC(=O)N2c2ccc(Cl)cc2)CC1 (stereo partly drawn) [(S)-1-(4-Chloro-phenyl)-5-oxo-pyrrolidine-2-carboxylic acid (4-tert-butyl-cyclohexyl)-amide] | 159 | 
19 | O=C(Nc1nc2cc(Cl)ccc2[nH]1)[C@@H]1CCC(=O)N1c1ccc(Cl)cc1 [(S)-1-(4-Chloro-phenyl)-5-oxo-pyrrolidine-2-carboxylic acid (5-chloro-1H-benzimidazol-2-yl)-amide] |  | 255
20 | Cc1ccc(NC(=O)[C@@H]2CCC(=O)N2c2ccc(Cl)cc2)nc1 [(S)-1-(4-Chloro-phenyl)-5-oxo-pyrrolidine-2-carboxylic acid (5-methyl-pyridin-2-yl)-amide] | 485 | 
21 | CC(C)(CO)c1cc(NC(=O)[C@@H]2CCC(=O)N2c2ccc(Cl)cc2)on1 [(S)-1-(4-Chloro-phenyl)-5-oxo-pyrrolidine-2-carboxylic acid [3-(2-hydroxy-1,1-dimethyl-ethyl)-isoxazol-5-yl]-amide] | 152 | 
22 | COc1ccc(-c2nsc(NC(=O)[C@@H]3CCC(=O)N3c3ccc(Cl)cc3)n2)cc1 [(S)-1-(4-Chloro-phenyl)-5-oxo-pyrrolidine-2-carboxylic acid [3-(4-methoxy-phenyl)-1,2,4-thiadiazol-5-yl]-amide] |  | 194
23 | CC(C)(C)CC(C)(C)NC(=O)[C@@H]1CCCN1c1ccc(Cl)cc1 [(S)-1-(4-Chloro-phenyl)-pyrrolidine-2-carboxylic acid (1,1,3,3-tetramethyl-butyl)-amide] | 25.1 | 
24 | CC(=O)N1CCC(CNC(=O)[C@@H]2CCCN2c2ccc(Cl)cc2)CC1 [(S)-1-(4-Chloro-phenyl)-pyrrolidine-2-carboxylic acid (1-acetyl-piperidin-4-ylmethyl)-amide] | 0.015 | 
25 | CC(C)(C)SCCNC(=O)[C@@H]1CCCN1c1ccc(Cl)cc1 [(S)-1-(4-Chloro-phenyl)-pyrrolidine-2-carboxylic acid (2-tert-butylsulfanyl-ethyl)-amide] | 2.61 | 
26 | CC1CC(NC(=O)[C@@H]2CCCN2c2ccc(Cl)cc2)CC(C)(C)C1 (stereo partly drawn) [(S)-1-(4-Chloro-phenyl)-pyrrolidine-2-carboxylic acid (3,3,5-trimethyl-cyclohexyl)-amide] | 2.16 | 
27 | O=C(Nc1ccc(C(F)(F)F)c(F)c1)[C@@H]1CCCN1c1ccc(Cl)cc1 [(S)-1-(4-Chloro-phenyl)-pyrrolidine-2-carboxylic acid (3-fluoro-4-trifluoromethyl-phenyl)-amide] | 30.4 | 
28 | O=C(Nc1nc(-c2ccccc2)ns1)[C@@H]1CCCN1c1ccc(Cl)cc1 [(S)-1-(4-Chloro-phenyl)-pyrrolidine-2-carboxylic acid (3-phenyl-1,2,4-thiadiazol-5-yl)-amide] | 4.85 | 
29 | CCCc1cc(NC(=O)[C@@H]2CCCN2c2ccc(Cl)cc2)on1 [(S)-1-(4-Chloro-phenyl)-pyrrolidine-2-carboxylic acid (3-propyl-isoxazol-5-yl)-amide] | 2.41 | 
